“Also recorded” adds a separate entry of the source. Like-named read-outs stand apart in the source and are kept apart here. Bridge positions count the residues as written; N and C are the ends. Square brackets hold non-standard residues; d marks the D form. Ends that are not written are not given here. Peptide text beside a SMILES is read from it.
Legend:
[1] = target: T1, QC (Homo sapiens, UniProt Q16769); test: Continuous spectrophotometric assay of QC substrate conversion (glutamate dehydrogenase coupled), human QC;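 note: initial rates read in microplates at 30 °C, with enzyme activity quantified against an ammonia calibration curve recorded under the same assay conditions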
Procedure: The initial velocities were evaluated and the enzymatic activity was determined from a standard curve of ammonia under assay conditions. All samples were measured at 30° C., using either the [sequence]luor Plus or the Sunrise (both from TECAN) reader for microplates. Kinetic data was evaluated using GraFit software.

[2] = target: T2, purified DP IV (porcine kidney) (Sus scrofa, UniProt P22411); test: Cleavage of [Gln^3]Aβ1-11a by DP IV, MALDI-TOF; assay type: biochemical
T2 construct: purified DP IV (porcine kidney); from tissue; host or cells: porcine kidney
Procedure: (§1) Matrix-assisted laser desorption/ionization mass spectrometry was carried out using the Hewlett-Packard G2025 LD-TOF System with a linear time of flight analyzer. […] Samples (5 μl) were mixed with equal volumes of the matrix solution. For matrix solution we used DHAP/DAHC, prepared by solving 30 mg 2′,6′-dihydroxyacetophenone (Aldrich) and 44 mg diammonium hydrogen citrate (Fluka) in 1 ml acetonitrile/0.1% TFA in water (1/1, v/v). A small volume (=1 μl) of the matrix-analyte-mixture was transferred to a probe tip and immediately evaporated in a vacuum chamber (Hewlett-Packard G2024A sample prep accessory) to ensure rapid and homogeneous sample crystallization.

[3] = target: T1, QC; test: Inhibition and inactivation of human QC by chelators; assay type: biochemical; set-up: The cDNA of the mature QC starting with codon 38 was fused in frame with the plasmid encoded 6×histidine tag; 6xHis; made in house; host or cells: Pichia pastoris X33 (pPICZαB); also E. coli M15 (pQE-31); details: for inhibition of human QC catalyzed substrate cyclization: competitive and time-dependent for the chelators
[4] = target: T1, QC; test: Long-term Glu^1-cyclization of Aβ-derived peptides by recombinant human QC, MALDI-TOF; assay type: biochemical; set-up: The cDNA of the mature QC starting with codon 38 was fused in frame with the plasmid encoded 6×histidine tag; 6xHis; made in house; host or cells: Pichia pastoris X33 (pPICZαB); also E. coli M15 (pQE-31); details: for turnover of glutamate-containing peptide by QC: pH 5.2 and 6.5, respectively; for suppression of [pGlu^3]Aβ3-11a / [pGlu^3]Aβ3-21a formation from Aβ3-11a / Aβ3-21a: 5 mM benzimidazole, pH 5.2 and 6.5
Procedure: For long-term testing of Glu^1-cyclization, Aβ-derived peptides were incubated in 100 μl 0.1 M sodium acetate buffer, pH 5.2 or 0.1 M Bis-Tris buffer, pH 6.5 at 30° C. Peptides were applied in 0.5 mM [Aβ3-11a] or 0.15 mM [Aβ3-21a] concentrations, and 0.2 U QC was added all 24 hours.
In case of Aβ3-21a, the assays contained 1% DMSO. At different times, samples were removed from the assay tube, peptides extracted using ZipTips (Millipore) according to the manufacturer's recommendations, mixed with matrix solution (1:1 v/v) and subsequently the mass spectra recorded. Negative controls did either contain no QC or heat deactivated enzyme.
The QC-catalyzed formation of [pGlu^3]Aβ3-11a and [pGlu^3]Aβ3-21a was investigated at pH 5.2 and 6.5, respectively. If the QC-inhibitor benzimidazole was added to the solution before starting the assay by addition of QC, substrate conversion resulting in [pGlu^3]Aβ3-11a or [pGlu^3]Aβ3-21a was suppressed (FIGS. 15E and F). If QC was boiled before addition, formation of the pGlu-peptides was negligible (FIGS. 15A and B).

[5] = target: T1, QC; test: LC/MS-analysis of pyroglutamate formation by QC; assay type: biochemical
[6] = target: T1, QC; test: Qualitative substrate conversion by MALDI-TOF mass spectrometry, human QC; assay type: biochemical; set-up: The cDNA of the mature QC starting with codon 38 was fused in frame with the plasmid encoded 6×histidine tag; 6xHis; made in house; host or cells: Pichia pastoris X33 (pPICZαB); also E. coli M15 (pQE-31)
Procedure: Matrix-assisted laser desorption/ionization mass spectrometry was carried out using the Hewlett-Packard G2025 LD-TOF System with a linear time of flight analyzer. The instrument was equipped with a 337 nm nitrogen laser, a potential acceleration source (5 kV) and a 1.0 m flight tube. Detector operation was in the positive-ion mode and signals were recorded and filtered using LeCroy 9350M digital storage oscilloscope linked to a personal computer. Samples (5 μl) were mixed with equal volumes of the matrix solution. For matrix solution we used DHAP/DAHC, prepared by solving 30 mg 2′,6′-dihydroxyacetophenone (Aldrich) and 44 mg diammonium hydrogen citrate (Fluka) in 1 ml acetonitrile/0.1% TFA in water (1/1, v/v). […]
In order to further investigate the specificity and selectivity of the QCs, peptides were synthesized comprising either a modified N-terminal glutaminyl residue or a modified amino acid in the second position. […] Due to the cyclization of the glutaminyl residue or its analog, respectively, a mass difference of the substrate and the product of catalysis is detected. In cases of ammonia liberation of one mole per mole of substrate, the conversion was also analyzed quantitatively using the spectrophotometric assay.

[7] = target: T1, QC; test: Fluorometric assay with pyroglutamyl aminopeptidase as auxiliary enzyme, human QC; assay type: biochemical; set-up: The cDNA of the mature QC starting with codon 38 was fused in frame with the plasmid encoded 6×histidine tag; 6xHis; made in house; host or cells: Pichia pastoris X33 (pPICZαB); also E. coli M15 (pQE-31); details: H-Gln-AMC as substrate
Excerpt: Excitation/emission wavelengths were 320/410 nm.
(§2) Excitation/emission wavelengths were 380/460 nm.
H-Glu(OMe)-βNA and H-Glu-βNA.

[8] = Procedure: H-Glu(OMe)-βNA and H-Glu-βNA. […] These fluorogenic substrates were analyzed fluorometrically, utilizing pyroglutamyl aminopeptidase as auxiliary enzyme.
[9] = system: DP IV and QC; test: Consecutive catalysis of DP IV and QC, crude porcine pituitary homogenate with added DPIV, MALDI-TOF; assay type: biochemical
Procedure: as §1

[10] = system: mammalian QC; details: Busby et al. 1987; cited from earlier work
[11] = target: T1, QC; test: Inhibitor assay: Ki determination in the human QC catalyzed reaction; assay type: biochemical; set-up: The cDNA of the mature QC starting with codon 38 was fused in frame with the plasmid encoded 6×histidine tag; 6xHis; made in house; host or cells: Pichia pastoris X33 (pPICZαB); also E. coli M15 (pQE-31); details: text of example 7
Excerpt: as §2

[12] = Table 6, influence of substrate length
[13] = Table 1, physiological substrates
[14] = peptides comprising modified amino acids

T2 sequence (P22411 whole entry): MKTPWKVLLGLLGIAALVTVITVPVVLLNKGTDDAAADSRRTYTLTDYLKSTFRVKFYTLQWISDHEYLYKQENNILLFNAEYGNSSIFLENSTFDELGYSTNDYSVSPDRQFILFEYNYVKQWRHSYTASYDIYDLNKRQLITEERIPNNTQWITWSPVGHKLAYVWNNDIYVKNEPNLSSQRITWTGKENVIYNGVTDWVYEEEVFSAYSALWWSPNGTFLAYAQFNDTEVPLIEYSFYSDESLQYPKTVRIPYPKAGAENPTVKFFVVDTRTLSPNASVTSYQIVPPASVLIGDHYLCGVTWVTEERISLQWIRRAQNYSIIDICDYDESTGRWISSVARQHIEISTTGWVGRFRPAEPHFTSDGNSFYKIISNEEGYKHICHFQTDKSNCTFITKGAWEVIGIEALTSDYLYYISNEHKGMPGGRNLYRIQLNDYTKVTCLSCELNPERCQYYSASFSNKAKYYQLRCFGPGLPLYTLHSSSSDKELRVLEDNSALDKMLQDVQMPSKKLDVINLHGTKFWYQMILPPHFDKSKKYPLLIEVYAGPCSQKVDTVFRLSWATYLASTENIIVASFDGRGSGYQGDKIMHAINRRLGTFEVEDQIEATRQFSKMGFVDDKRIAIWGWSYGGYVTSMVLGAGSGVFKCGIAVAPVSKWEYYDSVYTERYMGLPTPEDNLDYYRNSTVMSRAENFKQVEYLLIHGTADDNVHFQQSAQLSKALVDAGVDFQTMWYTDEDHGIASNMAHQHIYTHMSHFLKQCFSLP
T1 sequence (Q16769 29-361): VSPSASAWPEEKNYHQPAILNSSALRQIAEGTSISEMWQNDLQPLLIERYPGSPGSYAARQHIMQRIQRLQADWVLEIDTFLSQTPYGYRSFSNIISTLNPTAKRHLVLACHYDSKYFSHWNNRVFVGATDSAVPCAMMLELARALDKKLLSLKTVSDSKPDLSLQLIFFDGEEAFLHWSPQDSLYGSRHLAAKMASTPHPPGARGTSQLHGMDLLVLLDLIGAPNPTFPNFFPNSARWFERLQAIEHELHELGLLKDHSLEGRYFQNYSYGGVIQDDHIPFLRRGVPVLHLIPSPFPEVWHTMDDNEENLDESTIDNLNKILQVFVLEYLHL

Molecule C[C@H](NC(=O)[C@@H](N)CCC(N)=O)C(N)=O [H-Gln-Ala-NH2] (H-Gln-Ala-NH2) has a Km [1, 12] of 155 ± 9 µM.
For DAQFRHDSGYE-NH2 [[Gln^3]Aβ1-11a], the “cleavage by DPIV under formation of [Gln^3]Aβ3-11a” value [2] was “cleaving”.
With Oc1cccc2cccnc12 [8-hydroxyquinoline] the “inhibition of human QC catalyzed substrate cyclization” value [3] was “abolished”.
In the case of EFRHDSGYE-NH2 [Aβ3-11a], the “turnover of glutamate-containing peptide by QC” value [4] is reported as “serve as QC-substrates”.
Work on NC(=O)CC[C@H](N)C(=O)N[C@@H](CCC(=O)O)C(=O)N1CCC[C@H]1C(N)=O [[Gln^1]-FPP] (H-Gln-Glu-Pro-NH2) yielded a Km [1, 13] of 87 ± 2 µM.
For c1ccc2[nH]cnc2c1 [benzimidazole], the “suppression of [pGlu^3]Aβ3-11a / [pGlu^3]Aβ3-21a formation from Aβ3-11a / Aβ3-21a” value [4] was “suppressed” and the “suppression of [pGlu^3]Aβ3-11a / [pGlu^3]Aβ3-21a formation from Aβ3-11a / Aβ3-21a” value ([4]; listed as Benzimidazole) was “suppressing”.
In the case of O=C(O)c1cccc(C(=O)O)n1 [dipicolinic acid], the “inhibition of human QC catalyzed substrate cyclization” value [3] is reported as “abolished” and the “inactivation of human QC after extensive dialysis” value ([3]; dialysis against 5 mM) is reported as “almost completely inactivated”.
For “[Gln^5]-substance P(5-11): substance P fragment 5-11 with N-terminal glutamine (QQFFGLM; ends and bridges not checked)”, the “formation of N-terminal pyroglutamate by QC” value [5] was “transformed by QC”.
With “H-Gln(NMe)-Phe-Lys-Ala-Glu-NH2 (H-[Gln(NMe)]FKAE-NH2; not fully specified; printed as H-Gln(NMe)-Phe-Lys-Ala-Glu-NH2)” the “substrate conversion (cyclization) by human QC” value [6] was “No substrate conversion” and the “inhibition of human QC by the peptide” value [7] was “not detected”.
NC(=O)CC[C@H](N)C(=O)N[C@@H](Cc1c[nH]cn1)C(=O)N1CCC[C@H]1C(N)=O [[Gln^1]-TRH] (H-Gln-His-Pro-NH2) gave a Km [1, 13] of 90 ± 4 µM.
With COC(=O)CC[C@H](N)C(=O)Nc1ccc2ccccc2c1 [H-Glu(OMe)-βNA, H-Glu(OMe)-β-naphthylamide] the “stability in Tris and Tricine buffers” value [8] was “remarkable instability”.
With “H-EFKRLA-NH2 [H-Glu-Phe-Lys-Arg-Leu-Ala-NH2]” the “inhibition of human QC by the peptide” value [7] was “not inhibited”.
For CC(C)[C@H](N)C(=O)N1CCCC1 [Val-Pyrr, Val-Pyrrolidide], the “prevention of DP IV-catalysed cleavage of [Gln^3]Aβ1-11a” value [2] was “completely prevented”, the “prevention of DP IV-catalysed cleavage of [Gln^3]Aβ1-11a” value ([2]; listed as Val-Pyrrolidide) was “prevention” and the “[pGlu^3]Aβ3-11a formation from [Gln^3]Aβ1-11a in presence of catalytically active DP IV and QC” value [9] was “not formed; also recorded: reduction”.
In the case of COC(=O)CC[C@H](N)C(=O)N[C@@H](Cc1ccccc1)C(=O)N[C@@H](CCCCN)C(=O)N[C@@H](CCCNC(=N)N)C(=O)N[C@@H](CC(C)C)C(=O)N[C@@H](C)C(N)=O [H-Glu(OMe)-Phe-Lys-Arg-Leu-Ala-NH2] (H-E(OMe)FKRLA-NH2), the “inhibition of human QC by the peptide” value [7] is reported as “not inhibited”.
C[C@H](NC(=O)[C@H](C)NC(=O)[C@@H](N)CCC(N)=O)C(N)=O [H-Gln-Ala-Ala-NH2] (H-Gln-Ala-Ala-NH2) showed a Km [1, 12] of 87 ± 3 µM.
For O=C(O)CN(CCN(CC(=O)O)CC(=O)O)CC(=O)O [EDTA], the “inhibition of a mammalian QC” value [10] is given as “did not inhibit” and the “inhibition of human QC catalyzed substrate cyclization” value [3] is given as “did not show remarkable inhibition”.
For “[Gln^3]-glucagon(3-29): glucagon fragment 3-29 with N-terminal glutamine”, the “formation of N-terminal pyroglutamate by QC” value [5] was “catalyzed by QC”, the “second order rate constant” value ([1]; in presence of 1% DMSO) was 526000 M⁻¹ s⁻¹ and the kcat/KM ([1]; recombinant human QC, buffer solution containing 1% DMSO) was 526000 ± 17000 M⁻¹ s⁻¹.
In the case of Cn1cnc(CCN)c1 [1-methyl-4-(β-aminoethyl)-imidazole], the “inhibition of human QC, in words” value [11] is reported as “complete loss of inhibitory activity”.
In the case of EFRHDSGYEVHHQKLVFFA-NH2 [Aβ3-21a], the “turnover of glutamate-containing peptide by QC” value [4] is reported as “serve as QC-substrates”.
“[Gln^1]-GnRH: GnRH with N-terminal glutamine: QHWSYGL RP(G) amide” gave a kcat/KM [1, 13] of 1.3057e+06 ± 53200 M⁻¹ s⁻¹.
In the case of “H-Gln-cyclo(Nε-Lys-Arg-Pro-Ala-Gly-Phe) (H-QKRPAGF; lactam 2-C; SMILES C[C@@H]1NC(=O)[C@@H]2CCCN2C(=O)[C@H](CCCNC(=N)N)NC(=O)[C@@H](NC(=O)[C@@H](N)CCC(N)=O)CCCCNC(=O)[C@H](Cc2ccccc2)NC(=O)CNC1=O)”, the “kcat (turnover number)” value [1, 14] is reported as 22.8 ± 10.6 s⁻¹ and the kcat/KM-value [1, 14] is reported as 95000 ± 3000 M⁻¹ s⁻¹.
In the case of NC(=O)CC[C@H](N)C(=O)O [H-Gln-OH], the kcat/KM ([1]; Table 5, n.r. = not reactive) is reported as “n.r”.
In the case of Cc1cc(=O)oc2cc(NC(=O)[C@@H](N)CCC(N)=O)ccc12 [H-Gln-AMC], the kcat/KM ([1]; Table 5, n.r. = not reactive) is reported as 98000 ± 2000 M⁻¹ s⁻¹.
With CC(C)C[C@H](NC(=O)[C@H](CCCNC(=N)N)NC(=O)[C@H](CCCCNC(=O)[C@@H](N)CCC(N)=O)NC(=O)[C@@H](N)CCC(N)=O)C(=O)N[C@@H](C)C(N)=O [H-Gln-Lys(Gln)-Arg-Leu-Ala-NH2] (H-QK(Gln)RLA-NH2) the “substrate conversion (cyclization) by human QC” value [6] was “converted”.
In the case of reduced 6-methylpterin, the “inhibition of a mammalian QC” value [10] is given as “Inhibition”.

From patent US7381537B2, “Use of inhibitors of glutaminyl cyclases for treatment and prevention of disease” (Probiodrug AG, priority 2003, dated 2008)
